Results as given in patent publication US7696197B2, “Use of a phenothiazine derivative for preventing and/or treating hearing loss” (Societe de Conseils de Recherches et d'Applications …, priority 2004, dated 2010).

System: neuromast acoustic hair cells
Assay: Ototoxicity induced by gentamicin in zebrafish, DASPEI staining of neuromast acoustic hair cells
Format: in vivo
Conditions: 24 hours, fish aged 5 days
Excerpt: Zebrafish display the sensory organs on the surface of their bodies, called neuromasts. In these fish, the neuromast acoustic hair cells can be stained with DASPEI and this staining reflects the number of acoustic hair cells. These acoustic hair cells are structurally and functionally similar to the internal acoustic hair cells of the human ear.
Damage to the internal acoustic hair cells is induced in zebrafish by gentamicin. In order to test the effect of compound (1) on the protection of the acoustic hair cells damaged by gentamicin, the compound (1) was administered as a co-treatment with gentamicin. The internal acoustic hair cells are then stained and quantified.
The study is undertaken on fish aged 5 days incubated with 1 μg/ml of gentamicin for 24 hours in the presence or in the absence of compound (1). Controls are carried out in parallel; single vehicle (1% DMSO; positive control). The fish treated with gentamicin are the negative controls.
DASPEI (2,4-dimethyl-aminostyryl-N-ethyl pyridinium iodide) staining is carried out in order to visualize the acoustic hair cells in vivo (n=5 per group). Morphometric analysis is used in order to quantify the staining signal of the acoustic hair cells. The signal for DASPEI staining of the positive controls was defined as 100%. […]

gentamicin
DASPEI staining signal of acoustic hair cells, % of the control signal (gentamicin 1 μg/ml alone (negative control)): 31.5±4.2%
loss of the acoustic hair cells following treatment with gentamicin (gentamicin 1 μg/ml alone): 68.5±4.9%
